Source: paper PMC11062899, “De novo development of small cyclic peptides that are orally bioavailable” (Nature Chemical Biology, 2023)
Values joined by “and” are separate entries in the source; they are usually repeats but may differ in a detail not shown here. Equal entries are not always repeated. Where two headings read alike, the source gives them in different places.

Tests used:
[1] = target: human α-thrombin (Homo sapiens, UniProt P00734); assay: Protease inhibition, Ki for human α-thrombin (fluorogenic substrate Z-Gly-Gly-Arg-AMC); assay type: biochemical; settings: human alpha thrombin; for Slope normalized to DMSO (proteolytic substrate cleavage over time): replicates R1-R3
Procedure, shortened: (§1)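 Ki derived through Cheng–Prusoff from IC50s (four-parameter logistic fit) against activity of peptide-free controls. Product fluorescence was read every 3 min over 30 min at 25 °C, substrate Z-Gly-Gly-Arg-AMC at 50 μM. Enzyme was 2 nM human or 3 nM rat α-thrombin, pH 7.4 buffer.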

[2] = target: T1, rat α-thrombin (Rattus norvegicus, UniProt P18292); assay: Protease inhibition, Ki for rat α-thrombin (fluorogenic substrate Z-Gly-Gly-Arg-AMC); assay type: biochemical; settings: rat alpha thrombin; for Slope normalized to DMSO (proteolytic substrate cleavage over time): replicates R1-R3
T1 construct: rat α-thrombin (Molecular Innovations) were used at final concentrations of 2 nM and 3 nM; purchased Molecular Innovations
Procedure, shortened: as §1

[3] = target: T2, porcine pepsin (Sus scrofa, UniProt P00791); assay: Peptide stability in simulated gastric fluid (SGF); assay type: in vitro ADME
T2 construct: 0.32 g of porcine pepsin (Sigma-Aldrich, P7125) was dissolved under gentle agitation; purchased Sigma-Aldrich P7125
T2 sequence (P00791 60-385): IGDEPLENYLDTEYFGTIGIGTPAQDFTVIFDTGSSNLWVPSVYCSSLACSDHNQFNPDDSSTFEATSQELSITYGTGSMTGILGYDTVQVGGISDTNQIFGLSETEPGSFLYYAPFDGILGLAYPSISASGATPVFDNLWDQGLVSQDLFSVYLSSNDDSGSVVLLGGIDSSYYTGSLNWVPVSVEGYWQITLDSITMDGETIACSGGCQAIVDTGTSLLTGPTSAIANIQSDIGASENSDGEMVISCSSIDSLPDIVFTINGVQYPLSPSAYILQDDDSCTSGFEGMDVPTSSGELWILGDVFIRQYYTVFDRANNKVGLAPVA
Procedure, shortened: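 Peptide from a 1 mM DMSO stock was added to fluid pre-warmed at 37 °C. SGF was pH 1.2 NaCl with porcine pepsin (0.32 g per 100 ml), and SIF was pH 6.8 potassium phosphate with porcine pancreatin (1 g per 100 ml). Supernatant peptide was quantified by LC–MS, with residual expressed as T1/T0.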

[4] = Passive artificial membrane permeability (PAMPA)
[5] = Metabolic stability in rat liver microsomes (RLMs); settings: for microsomal CLint / half-life: rat

For `O=C1C[C@H]2CCCN2C(=O)[C@H](Cc2ccccc2)NC(=O)[C@@H](NC(=O)c2ccc(Cl)s2)CSCc2cccc(n2)CSCCN1` [compound 31], the Ki ([1]; average of R1-R3, read-out: Ki Average, human alpha thrombin inhibition) was 608 nM, the “Slope normalized to DMSO (proteolytic substrate cleavage over time)” value ([1]; peptide 1.02E-03 uM) was 102.8 and 91.6 and 92.3 and the “Slope normalized to DMSO (proteolytic substrate cleavage over time)” value ([1]; peptide 1.04E+00 uM) was 41.6 and 46.5 and 44.1. The “Slope normalized to DMSO (proteolytic substrate cleavage over time)” value ([1]; peptide 1.27E-04 uM) was 104.6 and 98.9 and 94.9, the “Slope normalized to DMSO (proteolytic substrate cleavage over time)” value ([1]; peptide 1.30E-01 uM) was 89.0 and 82.0 and 80.6 and the “Slope normalized to DMSO (proteolytic substrate cleavage over time)” value ([1]; peptide 1.59E-05 uM) was 106.7 and 95.1 and 97.4. For the same compound, the “Slope normalized to DMSO (proteolytic substrate cleavage over time)” value ([1]; peptide 1.63E-02 uM) was 99.4 and 97.2 and 88.2, the “Slope normalized to DMSO (proteolytic substrate cleavage over time)” value ([1]; peptide 2.03E-03 uM) was 103.4 and 94.4 and 88.8 and the “Slope normalized to DMSO (proteolytic substrate cleavage over time)” value ([1]; peptide 2.08E+00 uM) was 29.1 and 35.9 and 29.9. For the same compound, the “Slope normalized to DMSO (proteolytic substrate cleavage over time)” value ([1]; peptide 2.54E-04 uM) was 103.3 and 99.1 and 91.3, the “Slope normalized to DMSO (proteolytic substrate cleavage over time)” value ([1]; peptide 2.60E-01 uM) was 77.6 and 74.7 and 72.2 and the “Slope normalized to DMSO (proteolytic substrate cleavage over time)” value ([1]; peptide 3.18E-05 uM) was 106.8 and 94.8 and 91.3. For the same compound, the “Slope normalized to DMSO (proteolytic substrate cleavage over time)” value ([1]; peptide 3.26E-02 uM) was 96.6 and 90.1 and 84.7, the “Slope normalized to DMSO (proteolytic substrate cleavage over time)” value ([1]; peptide 4.07E-03 uM) was 86.5 and 95.5 and 89.4 and the “Slope normalized to DMSO (proteolytic substrate cleavage over time)” value ([1]; peptide 4.17E+00 uM) was 17.9 and 25.7 and 18.3. The “Slope normalized to DMSO (proteolytic substrate cleavage over time)” value ([1]; peptide 5.21E-01 uM) was 60.8 and 59.2 and 52.4, the “Slope normalized to DMSO (proteolytic substrate cleavage over time)” value ([1]; peptide 6.36E-05 uM) was 98.6 and 95.0 and 94.0 and the “Slope normalized to DMSO (proteolytic substrate cleavage over time)” value ([1]; peptide 6.51E-02 uM) was 91.4 and 89.0 and 83.1. The IC50 ([1]; single replicates R1-R3, read-out: IC50, human alpha thrombin inhibition) was 700 nM and 850 nM and 816 nM, the Ki ([1]; single replicates R1-R3, read-out: Ki, human alpha thrombin inhibition) was 540 nM and 655 nM and 629 nM and the Ki ([2]; average of R1-R3, read-out: Ki Average, rat alpha thrombin inhibition) was 183 nM. For the same compound, the “Slope normalized to DMSO (proteolytic substrate cleavage over time)” value ([2]; peptide 1.02E-03 uM) was 99.2 and 100.9 and 93.8, the “Slope normalized to DMSO (proteolytic substrate cleavage over time)” value ([2]; peptide 1.04E+00 uM) was 29.7 and 30.1 and 28.1 and the “Slope normalized to DMSO (proteolytic substrate cleavage over time)” value ([2]; peptide 1.27E-04 uM) was 101.2 and 100.0 and 97.1. The “Slope normalized to DMSO (proteolytic substrate cleavage over time)” value ([2]; peptide 1.30E-01 uM) was 74.9 and 71.7 and 69.9, the “Slope normalized to DMSO (proteolytic substrate cleavage over time)” value ([2]; peptide 1.59E-05 uM) was 103.1 and 102.5 and 98.1 and the “Slope normalized to DMSO (proteolytic substrate cleavage over time)” value ([2]; peptide 1.63E-02 uM) was 92.3 and 92.5 and 97.9. For the same compound, the “Slope normalized to DMSO (proteolytic substrate cleavage over time)” value ([2]; peptide 1.67E+01 uM) was 5.4 and 8.1 and 5.8, the “Slope normalized to DMSO (proteolytic substrate cleavage over time)” value ([2]; peptide 2.03E-03 uM) was 98.5 and 94.4 and 93.1 and the “Slope normalized to DMSO (proteolytic substrate cleavage over time)” value ([2]; peptide 2.08E+00 uM) was 20.1 and 19.4 and 16.8. The “Slope normalized to DMSO (proteolytic substrate cleavage over time)” value ([2]; peptide 2.54E-04 uM) was 119.5 and 99.6 and 95.9, the “Slope normalized to DMSO (proteolytic substrate cleavage over time)” value ([2]; peptide 2.60E-01 uM) was 60.8 and 61.1 and 58.9 and the “Slope normalized to DMSO (proteolytic substrate cleavage over time)” value ([2]; peptide 3.18E-05 uM) was 100.8 (2×) and 96.5. The “Slope normalized to DMSO (proteolytic substrate cleavage over time)” value ([2]; peptide 3.26E-02 uM) was 86.1 and 87.0 and 83.0, the “Slope normalized to DMSO (proteolytic substrate cleavage over time)” value ([2]; peptide 3.33E+01 uM) was 5.3 (2×) and 6.5 and the “Slope normalized to DMSO (proteolytic substrate cleavage over time)” value ([2]; peptide 4.07E-03 uM) was 93.9 and 97.5 and 93.1. For the same compound, the “Slope normalized to DMSO (proteolytic substrate cleavage over time)” value ([2]; peptide 4.17E+00 uM) was 12.5 and 13.2 and 11.9, the “Slope normalized to DMSO (proteolytic substrate cleavage over time)” value ([2]; peptide 5.09E-04 uM) was 99.8 and 101.3 and 106.4 and the “Slope normalized to DMSO (proteolytic substrate cleavage over time)” value ([2]; peptide 5.21E-01 uM) was 39.6 and 40.5 and 38.3. For the same compound, the “Slope normalized to DMSO (proteolytic substrate cleavage over time)” value ([2]; peptide 6.36E-05 uM) was 100.0 and 99.8 and 96.8, the “Slope normalized to DMSO (proteolytic substrate cleavage over time)” value ([2]; peptide 6.51E-02 uM) was 90.0 and 82.1 and 78.1 and the “Slope normalized to DMSO (proteolytic substrate cleavage over time)” value ([2]; peptide 6.67E+01 uM) was 6.2 and 7.3 and 4.1. The “Slope normalized to DMSO (proteolytic substrate cleavage over time)” value ([2]; peptide 7.95E-06 uM) was 105.8 and 104.8 and 99.9, the “Slope normalized to DMSO (proteolytic substrate cleavage over time)” value ([2]; peptide 8.14E-03 uM) was 96.3 and 93.4 and 96.8 and the “Slope normalized to DMSO (proteolytic substrate cleavage over time)” value ([2]; peptide 8.33E+00 uM) was 9.2 and 9.9 and 7.4. For the same compound, the IC50 ([2]; single replicates R1-R3, read-out: IC50, rat alpha thrombin inhibition) was 339 nM and 326 nM (2×), the Ki ([2]; single replicates R1-R3, read-out: Ki, rat alpha thrombin inhibition) was 188 nM (2×) and 181 nM (2×) and 180 nM (2×) and the “SGF stability, Residual peptide Average” value ([3]; after 8 h vs 0 h (TIC), average of R1-R3) was 92.45. The “SGF stability, Residual peptide” value ([3]; after 8 h vs 0 h (TIC), single replicates R1-R3) was 99.51 and 90.02 and 87.82, the remaining at 8 h ([3]; simulated gi fluid, 8 h, 37 °C, pH 1.2, read-out: Proteolytic stability: SGF (8 h) % remaining) was 92 ± 6% and the “PAMPA permeability: % permeability” value ([4]; 50 μM, 12–18 h, acceptor concentration relative to equilibrium) was 47 ± 3%. The Papp at 50 μM ([4]; PAMPA, pH 7.4) was 6.17 ×10⁻⁶ cm/s, the “Permeability% Average” value ([4]; top well sample vs theoretical equilibrium sample (TIC), average of R1-R3) was 46.6% and the Permeability% ([4]; top well sample vs theoretical equilibrium sample (TIC), single replicates R1-R3) was 44.27% and 50.38% and 45.09%. For the same compound, the “TIC value of compound, 0 min, R1” value ([5]; rat liver microsomes, 0 min, replicate R1) was 21675652, the “TIC value of compound, 0 min, R3” value ([5]; rat liver microsomes, 0 min, replicate R3) was 21375886 and the “TIC value of compound, 5 min, R1” value ([5]; rat liver microsomes, 5 min, replicate R1) was 16129690. For the same compound, the “TIC value of compound, 5 min, R3” value ([5]; rat liver microsomes, 5 min, replicate R3) was 21185792, the “TIC value of compound, 15 min, R1” value ([5]; rat liver microsomes, 15 min, replicate R1) was 14173175 and the “TIC value of compound, 15 min, R3” value ([5]; rat liver microsomes, 15 min, replicate R3) was 14991116. For the same compound, the “TIC value of compound, 30 min, R1” value ([5]; rat liver microsomes, 30 min, replicate R1) was 10634659, the “TIC value of compound, 30 min, R3” value ([5]; rat liver microsomes, 30 min, replicate R3) was 9842710 and the “TIC value of compound, 60 min, R1” value ([5]; rat liver microsomes, 60 min, replicate R1) was 4587256. For the same compound, the “TIC value of compound, 60 min, R3” value ([5]; rat liver microsomes, 60 min, replicate R3) was 4284596, the microsomal CLint ([5]; CL (ul/min/mg protein), R1, RLM CL, replicate R1, unrounded) was 53.6 µL/min/mg and the microsomal CLint ([5]; CL (ul/min/mg protein), R2, RLM CL, replicate R2, unrounded) was 48.6 µL/min/mg. For the same compound, the microsomal CLint ([5]; CL (ul/min/mg protein), R3, RLM CL, replicate R3, unrounded) was 49.4 µL/min/mg, the half-life ([5]; Half Life (min), R1, RLM metabolic stability, replicate R1) was 25.9 min and the half-life ([5]; Half Life (min), R2, RLM metabolic stability, replicate R2) was 28.5 min. It also gave a half-life ([5]; Half Life (min), R3, RLM metabolic stability, replicate R3) of 28 min, a half-life ([5]; microsomes, Metabolic stability: Half life T1/2 (min), RLMs, mean and SD, three measurements) of 27 ± 1 min and a microsomal CLint ([5]; microsomes, Metabolic stability: RLM CL (ul/min/mg), RLMs, mean and SD, three measurements) of 51 ± 2 µL/min/mg. It also gave a microsomal CLint ([5]; microsomes, RLM CL, Average, average of R1-R3) of 50.6 µL/min/mg, a microsomal CLint ([5]; microsomes, RLM CL, R1, RLM CL, replicate R1, summary block) of 53.6 µL/min/mg and a microsomal CLint ([5]; microsomes, RLM CL, R2, RLM CL, replicate R2, summary block) of 48.6 µL/min/mg. The microsomal CLint ([5]; microsomes, RLM CL, R3, RLM CL, replicate R3, summary block) was 49.4 µL/min/mg.
